From EP1072673A2, “Perfume compositions” (THE PROCTER & GAMBLE COMPANY, priority 1999, dated 2001)
Where two headings read alike, the source gives them in different places. Values belong to the compound of their own block, whether it stands above or below them.

How the values were obtained:
[1] = Bleach stability index (BSI) test: % AvO loss of perfumed bleach product in accelerated aging, by iodometric titration; details: perfume ingredient at 0.2% via AE3S in PAP finished product, pH 3.8; 2 weeks at 40°C; BSI of at least 80% = not more than 20% AvO loss
Experimental: (§1) For this test, the pure perfume chemicals to be tested were diluted at 0.2% via a solubiliser, namely C10-C18 sodium alkyl sulfate condensed with an average of three moles of ethylene oxide (AE3S), then incorporated in a finished product and then subjected to the accelerated aging test. The accelerated aging test is set up as follows: 15 to 20g of each of the finished product incorporating the perfume ingredient was taken and placed in an oven for 2 weeks at 40°C. The aged samples were compared versus freshly made perfumed product (The reference) by measuring the AvO before storage from the reference and after storage from the aged product and expressing the difference in AvO as % loss.
(§2) The loss of available oxygen (AvO) of a bleach-containing composition over time can be measured with the iodometric titration method in which the bleach is reduced by excess potassium iodide and the iodine formed is determined by titration with sodium thiosulphate.

[2] = pH 3.8
Experimental: as §1, §2

Compound: C=CCOC(=O)COCCC(C)C [allyl amyl glycolate]
bleach stability index (BSI) [1]: at least 80%

Compound: CC(CO)CC(C)c1ccccc1 (stereo not shown) [2-Methyl-4-phenyl-1-pentanol]
bleach stability index (BSI) [1]: at least 80%

Compound: CCC/C=C/C=O [trans-2-hexenal]
bleach stability index (BSI) [1]: at least 80%

Compound: CC1=CC(C)C(CO)CC1 (stereo not shown) [Floralol, dimethyl cyclohexene methanol]
bleach stability index (BSI) [1]: at least 80%

Compound: O=C1CCCC=CCCCCCCCCCC1 [ambretone]
bleach stability index (BSI) [1]: at least 80%

Compound: OC/C=C/c1ccccc1 [cinnamic alcohol]
bleach stability index (BSI) [1]: at least 80%

Compound: CC1=CCC(CC#N)C1(C)C (stereo not shown) [cantryl]
bleach stability index (BSI) [1]: at least 80%

Compound: C/C=C(/C)C(=O)OCC(C)C [isobutyl angelate]
bleach stability index (BSI) [1]: at least 80%

Compound: CC(C)=CCCC(C)=CC#N [3,7-dimethyl-2,6-octadienenitrile]
bleach stability index (BSI) [1]: at least 80%

Compound: CC(C)=CCOC(=O)c1ccccc1O [prenyl salicylate]
bleach stability index (BSI) [1]: at least 80%

Compound: CC(=O)/C=C/C1=C(C)CCCC1(C)C [ionone beta]
bleach stability index (BSI) [1]: at least 80%

Compound: CCOC(=O)C1=C(C)C=CCC1(C)C [Ethyl safranate, ethyl 2,6,6-trimethyl-1,3-cyclohexdiene-1-carboxylate]
bleach stability index (BSI) [1]: at least 80%

Compound: CCC(=O)OC1CC2CC1C1CC=CC21 (stereo not shown) [Frutene, tricyclo decenyl propionate]
bleach stability index (BSI) [2]: at least 80%

Compound: CCC/C=C/CO [trans-2-hexenol]
bleach stability index (BSI) [1]: at least 80%

Compound: C=CCOC(=O)COCCCCC [glycolic acid, 2-pentyloxy:allyl ester]
bleach stability index (BSI) [2]: at least 80%

Compound: CCCC(C)C=Nc1ccccc1C(=O)OC (stereo not shown) [mevantraal (q), Methyl 2-((-2-methylpentylidene)amino)-1-benzenecarboxylate]
bleach stability index (BSI) [1]: at least 80%

Compound: OCC=Cc1ccccc1 [3-Phenyl-2-propen-1-ol]
bleach stability index (BSI) [1]: at least 80%

Compound: CC(C)=CCCC(C)CCO (stereo not shown) [citronellol, 3,7-dimethyl-6-octen-1-ol]
bleach stability index (BSI) [1]: at least 80%

Compound: CC=CC(=O)C1C(C)=CCCC1(C)C (stereo not drawn) [alpha-damascone, 2-Buten-1-one, 1-(2,6,6-trimethyl-2-cyclohexen-1-yl)-]
bleach stability index (BSI) [1]: at least 80%

Compound: C=CC(C)(C#N)Cc1ccccc1 (stereo not shown) [2-Benzyl-2-methyl-3-butenenitril]
bleach stability index (BSI) [1]: at least 80%

Compound: CC=CC(=O)OC1CCCC1C1CCCC1 (stereo not shown) [2-cyclopentyl-cyclopentyl 2-butenoate]
bleach stability index (BSI) [1]: at least 80%

Compound: CC(C)C=CC(=O)CC(C)C [isotagetone 50, 2,7-Dimethyloct-5-en-4-one]
bleach stability index (BSI) [1]: at least 80%

Compound: CC=CC(=O)OC(C)CC(C)C (stereo not shown) [Frutinat.exp, 4-methyl-pentan-2-ol 2-butenoate]
bleach stability index (BSI) [1]: at least 80%

Compound: C=CC(=C)CCCC(C)(C)OC(C)=O [Myrcenyl acetate crude, 3-methylene-7-methyl-1-octen-7-yl acetate]
bleach stability index (BSI) [1]: at least 80%

Compound: CC1(C)CCCC2=C1CC(C=O)CC2 (stereo not shown) [melafleur]
bleach stability index (BSI) [1]: at least 80%

Compound: CC(=O)OCC=C(C)C [Prenyl acetate, 2-methylbuten-2-ol-4-acetate]
bleach stability index (BSI) [1]: at least 80%

Compound: C=CC(C)(CCC=C(C)C)OC(C)=O (stereo not shown) [linalyl acetate]
bleach stability index (BSI) [1]: at least 80%

Compound: C=C(C=O)C(C)CCC=C(C)C (stereo not shown) [bergamal]
bleach stability index (BSI) [1]: at least 80%

Compound: CC(=O)OCCC(C)CCC=C(C)C (stereo not shown) [citronellyl acetate]
bleach stability index (BSI) [1]: at least 80%

Now from value to compound:

bleach stability index (BSI) [1]: at least 80%
Compound: CC(C)(O)CCCC1=CCC(C=O)CC1 (stereo not shown) [lyral]

bleach stability index (BSI) [1]: at least 80%
Compound: CCCCCCC=CC(=O)OC [Beauvertate, methyl-2-nonenoate]

bleach stability index (BSI) [1]: at least 80%
Compound: O=c1ccc2ccccc2o1 [coumarin, 1,2-benzopyrone]

bleach stability index (BSI) [1]: at least 80%
Compound: CC=CC(=O)C1=C(C)CCCC1(C)C [2-Buten-1-one, 1-(2,6,6-trimethyl-1-cyclohexen-1-yl)-]

bleach stability index (BSI) [1]: at least 80%
Compound: CCC=C(C)C(O)CCCCC (stereo not shown) [undecavertol, 4-Methyl-3-decen-5-ol]

bleach stability index (BSI) [1]: at least 80%
Compound: C=CCCCCCCCC=CCC#N [3,12-tridecadiene nitrile]

bleach stability index (BSI) [1]: at least 80%
Compound: C=CC(C)CCCC(C)(C)O (stereo not shown) [Dihydro myrcenol, 2,6-dimethyl-7-octen-2-ol]

bleach stability index (BSI) [1]: at least 80%
Compound: 2,5,10-Trimethyl-2,5,9-cyclododecatrien-1-yl methyl ketone & isomers [trimofix o]

bleach stability index (BSI) [1]: at least 80%
Compound: CCC(=CCC1CC=C(C)C1(C)C)CO (stereo not shown) [Sanjinol, 2-Ethyl-4-(2,2,3-trimethyl-3-cyclopenten-1-yl)-2-buten-1-ol]

bleach stability index (BSI) [1]: at least 80%
Compound: C=CC(C)(O)CCC=C(C)C (stereo not shown) [Linalool, 3,7-Dimethyl-1,6-octadien-3-ol]

bleach stability index (BSI) [1]: at least 80%
Compound: CCCCCCC(C=O)=Cc1ccccc1 [hexyl cinnamic aldehyde]

bleach stability index (BSI) [1]: at least 80%
Compound: C=CCCCCCCCCO [rosalva, 9-Decen-1-ol]

bleach stability index (BSI) [1]: at least 80%
Compound: CC=CC(=O)OCCCCCC [Hexyl crotonate, hexyl 2-butenoate]

bleach stability index (BSI) [1]: at least 80%
Compound: CC(C)CCCC1=CCC(C)(C=O)CC1 (stereo not shown) [1-Methyl-4-(4-methylpentyl)-3-cyclohexenecarbaldehyde]

bleach stability index (BSI) [1]: at least 80%
Compound: COC(=O)c1ccccc1N=CC1CCC(C)=CC1C (stereo not shown) [ligantraal, Methyl 2-((-1-(2,4-dimethyl-3-cyclohexenyl)methylidene)amino)-1-benzenecarboxylate]

bleach stability index (BSI) [1]: at least 80%
Compound: CC1=CCC(CCC(C)C(C)O)C1(C)C (stereo not shown) [Sandalore, 5-(2,2,3-Trimethyl-3-cyclopentenyl)-3-methylpentan-2-ol]

bleach stability index (BSI) [1]: at least 80%
Compound: CC=C1CC2CC1C1CCCOC21 (stereo not shown) [5,8-Methano-2H-1-benzopyran, 6-ethylideneoctahydro-]

bleach stability index (BSI) [1]: at least 80%
Compound: CC(C)=CCCC(C)CC=O (stereo not shown) [Citronellal, 3,7-Dimethyl-6-octen-1-al]

bleach stability index (BSI) [1]: at least 80%
Compound: CC(=O)/C=C/C1C(C)=CCCC1(C)C (stereo not drawn) [ionone alpha]

bleach stability index (BSI) [1]: at least 80%
Compound: C=CC(O)CCCCC (stereo not shown) [amyl vinyl carbinol]
